Laboratory results published in BigSolDB 2.1.

Nc1cccc2ccccc12
solubility (mole fraction)
Conditions | 273.15 K | 278.15 K | 283.15 K | 288.15 K | 293.15 K | 298.15 K | 303.15 K | 308.15 K
in acetone | 0.552 | 0.59 | 0.636 | 0.684 | 0.724 | 0.778 | 0.839 | 0.898
in acetonitrile | 0.527 | 0.572 | 0.619 | 0.658 | 0.708 | 0.766 | 0.829 | 0.878
in cyclohexane | – | 0.00758 | 0.00992 | 0.014 | 0.0185 | 0.0263 | 0.0364 | 0.0621
in ethanol | 0.133 | 0.176 | 0.231 | 0.323 | 0.431 | 0.555 | 0.698 | 0.833
in ethyl acetate | 0.49 | 0.528 | 0.57 | 0.611 | 0.66 | 0.728 | 0.788 | 0.863
in isobutanol | 0.0584 | 0.0819 | 0.118 | 0.157 | 0.251 | 0.382 | 0.585 | 0.841
in isopropanol | 0.0524 | 0.0814 | 0.123 | 0.198 | 0.294 | 0.461 | 0.637 | 0.845
in methanol | 0.192 | 0.245 | 0.296 | 0.375 | 0.477 | 0.591 | 0.703 | 0.845
in n-butanol | 0.112 | 0.145 | 0.194 | 0.247 | 0.353 | 0.487 | 0.664 | 0.84
in n-butyl acetate | 0.441 | 0.485 | 0.532 | 0.585 | 0.645 | 0.706 | 0.777 | 0.849
in n-heptane | 0.00549 | 0.0073 | 0.00879 | 0.0115 | 0.0155 | 0.0205 | 0.026 | 0.0346
in n-propanol | 0.0925 | 0.133 | 0.181 | 0.256 | 0.365 | 0.512 | 0.669 | 0.838
